From paper PMC9294487 (eBioMedicine, 2022)

Legend:
[1] = target: T1, E. multilocularis DNA damage-inducible 1 protein (EmuDdi1) (Echinococcus multilocularis, UniProt A0A068Y9Y4); assay: fluorogenic aspartyl protease assay; format: biochemical
T1 sequence (A0A068Y9Y4 1-390): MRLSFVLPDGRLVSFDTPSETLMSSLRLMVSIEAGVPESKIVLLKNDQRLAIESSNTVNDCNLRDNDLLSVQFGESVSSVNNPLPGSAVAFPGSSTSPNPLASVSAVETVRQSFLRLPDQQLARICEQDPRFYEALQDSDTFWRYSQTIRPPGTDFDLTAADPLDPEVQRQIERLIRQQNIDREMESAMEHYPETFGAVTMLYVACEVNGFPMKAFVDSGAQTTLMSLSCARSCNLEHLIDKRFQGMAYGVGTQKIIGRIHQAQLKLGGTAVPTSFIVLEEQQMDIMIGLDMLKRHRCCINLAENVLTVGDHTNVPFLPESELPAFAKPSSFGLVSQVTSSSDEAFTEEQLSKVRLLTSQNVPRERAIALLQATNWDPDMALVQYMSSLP

[2] = target: T1, E. multilocularis DNA damage-inducible 1 protein (EmuDdi1); assay: fluorogenic aspartyl protease assay, single concentration; format: biochemical; settings: read-out: % inhibition at 40 μM

SMILES	IC50 [1]	inhibition at 40 µM [2]
Cc1c(O)cccc1C(=O)N[C@@H](CSc1ccccc1)[C@H](O)CN1C[C@H]2CCCC[C@H]2C[C@H]1C(=O)NC(C)(C)C [NFV, nelfinavir]	45.9 µM	–
CC(C)(C)NC(=O)[C@@H]1C[C@@H]2CCCC[C@@H]2CN1C[C@@H](O)[C@H](Cc1ccccc1)NC(=O)[C@H](CC(N)=O)NC(=O)c1ccc2ccccc2n1 [SQV, saquinavir]	–	~40%
